Experimental data published in patent US20230348369A1 (Cytokinetics, Inc., priority 2020, published 2023).
Where two headings read alike, the source gives them in different places.

Experiments:
[1] = biological target: human NAMPT (Homo sapiens, UniProt P43490); assay: Human recombinant enzyme assay (NMN fluorescence biochemical assay, activation of NAMPT)
In short: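 NMN production is detected fluorometrically (Ex 355/Em 460 nm) 40 min after acetophenone, KOH and formic acid derivatization. Reactions ran 60 min at ambient temperature: 6 nM human NAMPT, nicotinamide 150 μM, PRPP 20 μM, ATP 2.5 mM, buffered at pH 7.2 with 50 mM HEPES plus DTT, CHAPS, NaCl and 100 mM MgCl2.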

[2] = biological target: T1, endogenous NAMPT (Homo sapiens, UniProt P43490); assay: Cellular NAD+ modulation assay in neuroblastoma SH-SY5Y cells; type: cell-based; settings: Table B, SH-SY5Y cells, cellular NAD levels, doxorubicin, 40 hours; for EC50: read-out: EC50
T1 construct: stimulate the endogenous NAMPT in a native cellular environment; endogenous in cells; host or cells: SH-SY5Y neuroblastoma cells
T1 sequence (P43490 whole entry): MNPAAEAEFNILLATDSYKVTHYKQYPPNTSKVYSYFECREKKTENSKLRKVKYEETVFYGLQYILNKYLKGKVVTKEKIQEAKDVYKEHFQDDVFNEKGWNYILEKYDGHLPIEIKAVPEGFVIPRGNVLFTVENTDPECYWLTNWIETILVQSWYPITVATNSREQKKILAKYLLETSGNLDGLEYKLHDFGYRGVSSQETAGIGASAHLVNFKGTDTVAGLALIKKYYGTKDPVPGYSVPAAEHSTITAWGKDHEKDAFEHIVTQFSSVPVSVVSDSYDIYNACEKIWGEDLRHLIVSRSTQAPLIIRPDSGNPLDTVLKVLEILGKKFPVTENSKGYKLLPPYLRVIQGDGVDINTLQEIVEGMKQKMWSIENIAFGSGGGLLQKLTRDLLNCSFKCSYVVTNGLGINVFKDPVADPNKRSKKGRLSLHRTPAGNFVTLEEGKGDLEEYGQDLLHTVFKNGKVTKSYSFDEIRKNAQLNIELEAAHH
Protocol: The compounds described herein were also assayed for their ability to stimulate the endogenous NAMPT in a native cellular environment in the cellular NAD+ modulation assay, which measures the ability of the compound to modulate cellular NAD levels. Increased levels of NAD are expected by compounds that permeate the cells and activate the catalytic activity of the endogenous NAMPT.
Neuroblastoma SH-SY5Y cells were grown in 1:1 mixture of Eagle's Minimum Essential Medium and F12 Medium, along with 10% fetal bovine serum, in a humidified incubator with an atmosphere of 95% air and 5% CO2 at 37° C. The assays were initiated by plating 20 μL of SH-SY5Y cells in culture medium with 0.1% fetal bovine serum, at a density of 5000 cells per well to a 384-well Corning™ BioCoat™ Poly-D-Lysine Multiwell Plates. The plates were incubated in the 37° C. incubators for a period of 5 hours. Compounds in DMSO were added to the plates in a volume of 120 nL using the Labcyte Echo Liquid Handlers. […] The plates are then incubated for 40 hours. 30 μL of a readout-solution containing 0.2 U/mL Diaphorase enzyme, 40 uM resazurin, 10 uM FMN, 0.8 U/mL Alcohol dehydrogenase, 3% ethanol, 0.4 mg/mL bovine serum albumin, 0.2% Triton X-100 in 100 mM Tris-HCl, 30 mM EDTA, pH 8.4. The plates were read for fluorescence (Excitation/Emission=540 nm/590 nm) using an EnVision plate reader after 60 mins of incubation at ambient temperature.

[3] = Table A, human recombinant NAMPT, NMN formation, 60 min
[4] = Table A, human recombinant NAMPT, NMN formation, 60 min, read-out: EC50 Human

human NAMPT, sequence (P43490 whole entry): as above

| SMILES | AC1.4 Human [1, 3] | EC50 [1, 4] | AC0.3 [2] | EC50 [2] | EC50 [1] |
| --- | --- | --- | --- | --- | --- |
| CN(C(=O)CCCCCNC(=O)NCc1cnco1)c1ccccc1F [Compound 288, N-(2-fluorophenyl)-N-methyl-6-(3-(oxazol-5-ylmethyl)ureido)hexanamide] | 0.3 µM | 3.7 µM | 0.3 µM | 0.8 µM | – |
| CC(C)(C)OC(=O)N1CCC2(CC1)CC2CNC(=O)NCc1ccc(CO)cc1 (stereo not shown) [Compound 29, tert-butyl 1-((3-(4-(hydroxymethyl)benzyl)ureido)methyl)-6-azaspiro[2.5]octane-6-carboxylate] | – | 26.7 µM | – | 2.2 µM | – |
| CN(C(=O)CCCCCNC(=O)NCc1ccc(Cl)cc1)c1ccncc1 [Compound 265, 6-(3-(4-chlorobenzyl)ureido)-N-methyl-N-(pyridin-4-yl)hexanamide] | 0.8 µM | 1.6 µM | – | – | – |
| O=C(NCc1cn[nH]c1)NC1CC2(C1)CC(NC(=O)c1ccccc1)C2 (stereo not shown) [Compound 17, N-(6-(3-((1H-pyrazol-4-yl)methyl)ureido)spiro[3.3]heptan-2-yl)benzamide] | 17.6 µM | 50.5 µM | – | – | – |
| O=C(CCCCCNC(=O)NCc1ccc(Cl)cc1)NC1CCCC1 [Compound 258, 6-(3-(4-chlorobenzyl)ureido)-N-cyclopentylhexanamide] | 3.8 µM | 23.1 µM | – | – | – |
| COc1ccc(CNC(=O)NC2CC3(C2)CC(C(=O)N2CCN(Cc4ccncc4)CC2)C3)cc1 (stereo not shown) [Compound 124, 1-(4-methoxybenzyl)-3-(6-(4-(pyridin-4-ylmethyl)piperazine-1-carbonyl)spiro[3.3]heptan-2-yl)urea] | 1.3 µM | 24.9 µM | – | – | – |
| COc1ccc(CNC(=O)NC2CC3(C2)CC(C(=O)N2CCCC2c2ccccc2)C3)cc1 (stereo not shown) [Compound 44, 1-(4-methoxybenzyl)-3-(6-(2-phenylpyrrolidine-1-carbonyl)spiro[3.3]heptan-2-yl)urea] | 10.1 µM | 36.5 µM | – | – | – |
| COc1ccc(CNC(=O)NC2CC3(C2)CC(OCc2ccncc2)C3)cc1 (stereo not shown) [Compound 349, 1-(4-methoxybenzyl)-3-(6-(pyridin-4-ylmethoxy)spiro[3.3]heptan-2-yl)urea] | 6.9 µM | 40.3 µM | – | – | – |
| CCc1cccc(C(=O)N2CC3(CC(NC(=O)NCc4ccc(OC)cc4)C3)C2)c1 [Compound 172, 1-(2-(3-ethylbenzoyl)-2-azaspiro[3.3]heptan-6-yl)-3-(4-methoxybenzyl)urea] | 1.9 µM | – | – | – | 22.9 µM |
| COc1ccc(CNC(=O)NC2CC3(CC(CN4CCc5ccccc54)C3)C2)cc1 (stereo not shown) [Compound 128, 1-(6-(indolin-1-ylmethyl)spiro[3.3]heptan-2-yl)-3-(4-methoxybenzyl)urea] | 0.6 µM | 20.8 µM | – | – | – |
| Cc1cccc(C(=O)NCC2CC3(C2)CC(NC(=O)NCc2ccc(Cl)cc2)C3)n1 (stereo not shown) [Compound 245, N-((6-(3-(4-chlorobenzyl)ureido)spiro[3.3]heptan-2-yl)methyl)-6-methylpicolinamide] | 3.1 µM | – | – | – | 4.9 µM |
| COc1ccc(CNC(=O)NC2CC3(C2)CC(C(=O)N[C@H](CO)c2ccccc2)C3)cc1 (stereo partly drawn) [Compound 46, (S)-N-(2-hydroxy-1-phenylethyl)-6-(3-(4-methoxybenzyl)ureido)spiro[3.3]heptane-2-carboxamide] | 6.8 µM | 41.3 µM | – | – | – |
| N#Cc1cnn(CC2CC3(C2)CC(NC(=O)NCc2ccc(Cl)cc2)C3)c1 (stereo not shown) [Compound 333, 1-(4-chlorobenzyl)-3-(6-((4-cyano-1H-pyrazol-1-yl)methyl)spiro[3.3]heptan-2-yl)urea] | 1.8 µM | – | – | – | 4.4 µM |
| COc1ccc(CNC(=O)NC2CC3(C2)CC(C(=O)NC2CCCc4ccccc42)C3)cc1 (stereo in doubt) [Compound 100, (R)-6-(3-(4-methoxybenzyl)ureido)-N-(1,2,3,4-tetrahydronaphthalen-1-yl)spiro[3.3]heptane-2-carboxamide] | 8.5 µM | 10.3 µM | – | – | – |
| COc1ccc(CNC(=O)NC2CC3(C2)CN(C(=O)C(C)(C)c2cccc(C)c2)C3)cc1 [Compound 154, 1-(4-methoxybenzyl)-3-(2-(2-methyl-2-(m-tolyl)propanoyl)-2-azaspiro[3.3]heptan-6-yl)urea] | 2.1 µM | 31 µM | – | – | – |
| Cc1ccc(C(=O)N2CC[C@]3(C2)C[C@@H](NC(=O)NCc2ccc(Cl)cc2)C3)cc1 [Compound 159, 1-(4-chlorobenzyl)-3-((2r,4s)-6-(4-methylbenzoyl)-6-azaspiro[3.4]octan-2-yl)urea] | 8.7 µM | 23.1 µM | – | – | – |
| O=C(NCc1ccc(Cl)cc1)NC1CC2(CC(Cc3ncccn3)C2)C1 (stereo not shown) [Compound 340, 1-(4-chlorobenzyl)-3-(6-(pyrimidin-2-ylmethyl)spiro[3.3]heptan-2-yl)urea] | 3.7 µM | – | – | – | 5.6 µM |
| CC1(C)CCC(NC(=O)NCc2ccc(C(N)=O)cc2)CC1 [Compound 3, 4-((3-(4,4-dimethylcyclohexyl)ureido)methyl)benzamide] | 17.5 µM | 41.4 µM | – | – | – |
| O=C(CCCCCNC(=O)NCc1ccc(Cl)cc1)Nc1ccccc1-c1ccccc1 [Compound 273, N-([1,1′-biphenyl]-2-yl)-6-(3-(4-chlorobenzyl)ureido)hexanamide] | 0.9 µM | 0.3 µM | – | – | – |
| O=C(CCCCCNC(=O)NCc1ccc(Cl)cc1)Nc1ccncc1 [Compound 263, 6-(3-(4-chlorobenzyl)ureido)-N-(pyridin-4-yl)hexanamide] | 1.4 µM | 10.2 µM | – | – | – |
| Cc1ccccc1C(=O)NCCCCCNC(=O)NCc1ccc(Cl)cc1 [Compound 275, N-(5-(3-(4-chlorobenzyl)ureido)pentyl)-2-methylbenzamide] | 1.9 µM | 11.4 µM | – | – | – |

The next lines start with results.

| AC1.4 Human [1, 3] | EC50 [1, 4] | AC0.3 [2] | EC50 [2] | SMILES | EC50 [1] |
| --- | --- | --- | --- | --- | --- |
| 3.7 µM | 25.5 µM | 1.0 µM | 3.3 µM | O=C(NCCOCCOc1ccccc1)NCc1ccc(Cl)cc1 [Compound 196, 1-(4-chlorobenzyl)-3-(2-(2-phenoxyethoxy)ethyl)urea] | – |
| 0.1 µM | 2.3 µM | 0.2 µM | 0.3 µM | COc1ccc(CNC(=O)NCCCCC2CCN(C(=O)c3ccccc3C)CC2)cc1 [Compound 322, 1-(4-methoxybenzyl)-3-(4-(1-(2-methylbenzoyl)piperidin-4-yl)butyl)urea] | – |
| 2.0 µM | 5.3 µM | – | – | COc1ccc(CNC(=O)NCCCCCCOc2ccccc2)cc1 [Compound 150, 1-(4-methoxybenzyl)-3-(6-phenoxyhexyl)urea] | – |
| 17.2 µM | 24 µM | – | – | COc1ccc(CNC(=O)NC2CC3(C2)CN(C(=O)Cc2ccccc2OC)C3)cc1 [Compound 40, 1-(4-methoxybenzyl)-3-(2-(2-(2-methoxyphenyl)acetyl)-2-azaspiro[3.3]heptan-6-yl)urea] | – |
| 3.6 µM | 30.8 µM | – | – | Cc1ccc(C(=O)N2CC3(CC(NC(=O)NCc4ccc(C(N)=O)nc4)C3)C2)cc1 [Compound 215, 5-((3-(2-(4-methylbenzoyl)-2-azaspiro[3.3]heptan-6-yl)ureido)methyl)picolinamide] | – |
| 2.5 µM | 6.5 µM | – | – | Cc1ccc(C(=O)NC(C)C2CC3(CC(NC(=O)NCc4ccc(Cl)cc4)C3)C2)cn1 (stereo not shown) [Compound 255, N-(1-(6-(3-(4-chlorobenzyl)ureido)spiro[3.3]heptan-2-yl)ethyl)-6-methylnicotinamide] | – |
| – | 25.9 µM | – | – | CC(C)(C)OC(=O)NC1CC2(CC(NC(=O)NCc3ccc(C(N)=O)cc3)C2)C1 (stereo not shown) [Compound 2, tert-butyl (6-(3-(4-carbamoylbenzyl)ureido)spiro[3.3]heptan-2-yl)carbamate] | – |
| 4.9 µM | 46.4 µM | – | – | COc1ccc(CNC(=O)NC2CC3(C2)CC(C(=O)NC2(c4ccccc4)CC2)C3)cc1 (stereo not shown) [Compound 43, 6-(3-(4-methoxybenzyl)ureido)-N-(1-phenylcyclopropyl)spiro[3.3]heptane-2-carboxamide] | – |
| 3.1 µM | 34.9 µM | – | – | COc1ccc(CNC(=O)NC2CC3(C2)CC(Oc2cccnc2)C3)cc1 (stereo not shown) [Compound 344, 1-(4-methoxybenzyl)-3-(6-(pyridin-3-yloxy)spiro[3.3]heptan-2-yl)urea] | – |
| 10.3 µM | 33.7 µM | – | – | COc1ccc(CNC(=O)NC2CC3(C2)CC(C(=O)Nc2ccc4nncn4c2)C3)cc1 (stereo not shown) [Compound 89, N-([1,2,4]triazolo[4,3-a]pyridin-6-yl)-6-(3-(4-methoxybenzyl)ureido)spiro[3.3]heptane-2-carboxamide] | – |
